Data taken from patent US20240228506A1, “RIPK1 INHIBITORS AND METHODS OF USE” (Merck Sharp & Dohme LLC, priority 2021, published 2024).

Molecular target: T1, GST-RIPK1 (recombinant GST-RIPK1 kinase domain (residues 1-327)) (Homo sapiens, UniProt Q13546)
T1 construct: recombinant GST-RIPK1 kinase domain (residues 1-327) enzyme; made in house; host or cells: baculovirus-transfected Sf21 insect cells
T1 sequence (Q13546 1-327): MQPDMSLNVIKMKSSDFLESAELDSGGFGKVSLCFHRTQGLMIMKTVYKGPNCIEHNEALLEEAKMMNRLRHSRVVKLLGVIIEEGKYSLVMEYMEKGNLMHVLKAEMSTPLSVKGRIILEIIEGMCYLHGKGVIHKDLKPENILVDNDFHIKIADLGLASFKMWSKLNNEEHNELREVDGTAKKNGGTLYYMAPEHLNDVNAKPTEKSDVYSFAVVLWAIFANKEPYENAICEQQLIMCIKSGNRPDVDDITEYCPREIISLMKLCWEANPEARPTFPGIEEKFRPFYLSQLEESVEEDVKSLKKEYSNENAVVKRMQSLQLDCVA
Experiment: RIPK1-ADP-Glo enzymatic assay
Assay type: biochemical
Conditions: 25 nM GST-RIPK1, 300 μM ATP, 3 μM dephosphorylated-MBP; 30 minutes pre-incubation, 150 minutes reaction; ten-point titration
How it was run: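 Ten-point 1:3 titrations from 100000 nM, 1% DMSO, were preincubated 30 min with 25 nM GST-RIPK1 (1-327) before starting with 300 μM ATP plus 3 μM dephosphorylated MBP; 150 min reaction. ADP-Glo luminescence measured ATP-to-ADP conversion; EC50 by four-parameter sigmoidal regression.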

Compound	IC50 [µM]
CC(F)(F)C1(C(=O)N2C[C@@H]3C[C@H]2c2cncc(Cl)c2O3)CCC1 [Compound 2-11, ((2S,5S)-9-chloro-2,3-dihydro-2,5-methanopyrido[3,4-f][1,4]oxazepin-4(5H)-yl)(1-(1,1-difluoroethyl)cyclobutyl) methanone]	0.057
O=C(N1C[C@@H]2C[C@H]1c1cncc(Cl)c1O2)C1(C(F)F)CCC1 [Compound 2-12, ((2S,5S)-9-chloro-2,3-dihydro-2,5-methanopyrido[3,4-f][1,4]oxazepin-4(5H)-yl)(1-(difluoromethyl)cyclobutyl) methanone]	0.124
Cc1cncc2c1O[C@H]1C[C@@H]2N(C(=O)C(C)(C)C)C1 [Compound 2-13, 2,2-dimethyl-1-((2S,5S)-9-methyl-2,3-dihydro-2,5-methanopyrido[3,4-f][1,4]oxazepin-4(5H)-yl)propan-1-one]	1.1
O=C(N1C[C@@H]2C[C@H]1c1cncc(F)c1O2)C12CCC(C(F)(F)F)(CC1)C2 [Compound 2-14, ((2S,5S)-9-fluoro-2,3-dihydro-2,5-methanopyrido[3,4-f][1,4]oxazepin-4(5H)-yl)(4-(trifluoromethyl)bicyclo [2.2.1]heptan-1-yl)methanone]	0.02
O=C(N1C[C@@H]2C[C@H]1c1cncc(F)c1O2)C12CCC(F)(CC1)CC2 [Compound 2-15, ((2S,5S)-9-fluoro-2,3-dihydro-2,5-methanopyrido[3,4-f][1,4]oxazepin-4(5H)-yl)(4-fluorobicyclo[2.2.2]octan-1-yl)methanone]	0.081
CC(C)(C(=O)N1C[C@@H]2C[C@H]1c1cncc(F)c1O2)C1CC1 [Compound 2-16, 2-cyclopropyl-1-((2S,5S)-9-fluoro-2,3-dihydro-2,5-methanopyrido[3,4-f][1,4]oxazepin-4(5H)-yl)-2-methylpropan-1-one]	0.074
C#Cc1cncc2c1O[C@H]1C[C@@H]2N(C(=O)C(C)(C)C)C1 [Compound 2-17, 1-((2S,5S)-9-Ethynyl-2,3-dihydro-2,5-methanopyrido[3,4-f][1,4]oxazepin-4(5H)-yl)-2,2-dimethylpropan-1-one]	0.05
CC(C)(C)C(=O)N1C[C@@H]2C[C@H]1c1cncc(C#Cc3ccccc3)c1O2 [Compound 2-20, 2,2-Dimethyl-1-((2S,5S)-9-(phenylethynyl)-2,3-dihydro-2,5-methanopyrido[3,4-f][1,4]oxazepin-4(5H)-yl)propan-1-one]	0.072
O=C(N1C[C@@H]2C[C@H]1c1cncc(F)c1O2)C12CCC(CC1)C2 [Compound 2-21, bicyclo[2.2.1]heptan-1-yl((2S,5S)-9-fluoro-2,3-dihydro-2,5-methanopyrido[3,4-f][1,4]oxazepin-4(5H)-yl)methanone]	0.037
CC(F)(F)C(C)(C)C(=O)N1C[C@@H]2C[C@H]1c1cncc(F)c1O2 [Compound 2-22, 3,3-difluoro-1-((2S,5S)-9-fluoro-2,3-dihydro-2,5-methanopyrido[3,4-f][1,4]oxazepin-4(5H)-yl)-2,2-dimethylbutan-1-one]	0.067
CC1(C(=O)N2C[C@@H]3C[C@H]2c2cncc(F)c2O3)CCCC1 [Compound 2-23, ((2S,5S)-9-fluoro-2,3-dihydro-2,5-methanopyrido[3,4-f][1,4]oxazepin-4(5H)-yl)(1-methylcyclopentyl) methanone]	0.074
N#CC12CCC(C(=O)N3C[C@@H]4C[C@H]3c3cncc(F)c3O4)(C1)C2 [Compound 2-24, 4-((2S,5S)-9-fluoro-2,3,4,5-tetrahydro-2,5-methanopyrido[3,4-f][1,4]oxazepine-4-carbonyl)bicyclo[2.1.1] hexane-1-carbonitrile]	0.111
CC1(C(=O)N2C[C@@H]3C[C@H]2c2cncc(Cl)c2O3)CCCC1 [Compound 2-25, ((2S,5S)-9-chloro-2,3-dihydro-2,5-methanopyrido[3,4-f][1,4]oxazepin-4(5H)-yl)(1-methylcyclopentyl) methanone]	0.079
N#CC12CCC(C(=O)N3C[C@@H]4C[C@H]3c3cncc(Cl)c3O4)(C1)C2 [Compound 2-26, 4-((2S,5S)-9-chloro-2,3,4,5-tetrahydro-2,5-methanopyrido[3,4-f][1,4]oxazepine-4-carbonyl)bicyclo[2.1.1] hexane-1-carbonitrile]	0.087
Cc1ncc2c(c1F)O[C@H]1C[C@@H]2N(C(=O)C23CCC(C(F)(F)F)(CC2)C3)C1 [Compound 2-27, ((2S,5S)-9-Fluoro-8-methyl-2,3-dihydro-2,5-methanopyrido[3,4-f][1,4]oxazepin-4(5H)-yl)(4-(trifluoromethyl)bicyclo[2.2.1]heptan-1-yl)methanone]	0.047
Cc1ncc2c(c1F)O[C@H]1C[C@@H]2N(C(=O)C23CCC(F)(CC2)C3)C1 [Compound 2-28, ((2S,5S)-9-fluoro-8-methyl-2,3-dihydro-2,5-methanopyrido[3,4-f][1,4]oxazepin-4(5H)-yl)(4-fluorobicyclo[2.2.1]heptan-1-yl)methanone]	0.059
O=C(N1C[C@@H]2C[C@H]1c1cncc(Cl)c1O2)C12CCC(C1)C2 [Compound 2-29, bicyclo[2.1.1]hexan-1-yl((2S,5S)-9-chloro-2,3-dihydro-2,5-methanopyrido[3,4-f][1,4]oxazepin-4(5H)-yl)methanone]	0.124
O=C(N1C[C@@H]2C[C@H]1c1cncc(F)c1O2)C12CCC(C1)C2 [Compound 2-30, bicyclo[2.1.1]hexan-1-yl((2S,5S)-9-fluoro-2,3-dihydro-2,5-methanopyrido[3,4-f][1,4]oxazepin-4(5H)-yl)methanone]	0.156
O=C(N1C[C@@H]2C[C@H]1c1cncc(Cl)c1O2)C12CCC(CC1)C2 [Compound 2-31, Bicyclo[2.2.1]heptan-1-yl((2S,5S)-9-chloro-2,3-dihydro-2,5-methanopyrido[3,4-f][1,4]oxazepin-4(5H)-yl)methanone]	0.02
C#Cc1cncc2c1O[C@H]1C[C@@H]2N(C(=O)C(C)(C)C(F)F)C1 [Compound 2-32, 1-((2S,5S)-9-Ethynyl-2,3-dihydro-2,5-methanopyrido[3,4-f][1,4]oxazepin-4(5H)-yl)-3,3-difluoro-2,2-dimethylpropan-1-one]	0.167
C#Cc1cncc2c1O[C@H]1C[C@@H]2N(C(=O)C23CCC(C(F)(F)F)(CC2)C3)C1 [Compound 2-33, ((2S,5S)-9-ethynyl-2,3-dihydro-2,5-methanopyrido[3,4-f][1,4]oxazepin-4(5H)-yl)(4-(trifluoromethyl)bicyclo [2.2.1]heptan-1-yl)methanone]	0.038
CC(C)(C(=O)N1C[C@@H]2C[C@H]1c1cncc(C#Cc3ccc4nccnc4c3)c1O2)C(F)F [Compound 2-34, 3,3-Difluoro-2,2-dimethyl-1-((2S,5S)-9-(quinoxalin-6-ylethynyl)-2,3-dihydro-2,5-methanopyrido[3,4-f][1,4]oxazepin-4(5H)-yl)propan-1-one]	0.015
CC(C)(C)C(=O)N1C[C@@H]2C[C@H]1c1cncc(C#Cc3cc(C(F)(F)F)ccn3)c1O2 [Compound 2-35, 2,2-dimethyl-1-((2S,5S)-9-((4-(trifluoromethyl)pyridin-2-yl)ethynyl)-2,3-dihydro-2,5-methanopyrido[3,4-f][1,4]oxazepin-4(5H)-yl)propan-1-one]	0.176
CC(C)(C)C(=O)N1C[C@@H]2C[C@H]1c1cncc(C#CC(O)(c3ccccc3)C(F)(F)F)c1O2 (stereo partly drawn) [Compound 2-36, 2,2-dimethyl-1-((2S,5S)-9-(4,4,4-trifluoro-3-hydroxy-3-phenylbut-1-yn-1-yl)-2,3-dihydro-2,5-methanopyrido[3,4-f][1,4]oxazepin-4(5H)-yl)propan-1-one]	0.525
CC(C)(C)C(=O)N1C[C@@H]2C[C@H]1c1cncc(C#Cc3ccc(OC(F)(F)F)cc3)c1O2 [Compound 2-37, 2,2-dimethyl-1-((2S,5S)-9-((4-(trifluoromethoxy)phenyl)ethynyl)-2,3-dihydro-2,5-methanopyrido[3,4-f][1,4]oxazepin-4(5H)-yl)propan-1-one]	0.047
COc1ccc2cc(C#Cc3cncc4c3O[C@H]3C[C@@H]4N(C(=O)C(C)(C)C)C3)ccc2c1 [Compound 2-38, 1-((2S,5S)-9-((6-methoxynaphthalen-2-yl)ethynyl)-2,3-dihydro-2,5-methanopyrido[3,4-f][1,4]oxazepin-4(5H)-yl)-2,2-dimethylpropan-1-one]	0.025
CC(C)(C(=O)N1C[C@@H]2C[C@H]1c1cncc(C#Cc3ccnc(N)c3)c1O2)C(F)F [Compound 2-39, 1-((2S,5S)-9-((2-aminopyridin-4-yl)ethynyl)-2,3-dihydro-2,5-methanopyrido[3,4-f][1,4]oxazepin-4(5H)-yl)-3,3-difluoro-2,2-dimethylpropan-1-one]	0.024
CC(C)(C(=O)N1C[C@@H]2C[C@H]1c1cncc(C#CCn3nnc4ccccc43)c1O2)C(F)F [Compound 2-40, 1-((2S,5S)-9-(3-(1H-benzo[d][1,2,3]triazol-1-yl)prop-1-yn-1-yl)-2,3-dihydro-2,5-methanopyrido[3,4-f][1,4]oxazepin-4(5H)-yl)-3,3-difluoro-2,2-dimethylpropan-1-one]	0.14
CC(C)(C(=O)N1C[C@@H]2C[C@H]1c1cncc(C#Cc3ccc(F)cc3)c1O2)C(F)F [Compound 2-41, 3,3-difluoro-1-((2S,5S)-9-((4-fluorophenyl)ethynyl)-2,3-dihydro-2,5-methanopyrido[3,4-f][1,4]oxazepin-4(5H)-yl)-2,2-dimethylpropan-1-one]	0.056
